Data: PubChem BioAssay AID2060511 (Molecular Pharmacology Branch, DTP, NCI, 2025)

Test system: 422866-222-R5-J1-PDC spheroids with HUVEC/MSC, viability
Assay: Anticancer human tumor 422866-222-R5-J1-PDC patient-derived pancreatic adenocarcinoma cell line growth inhibition [GQUAD]
Settings: for IC50: curve of first compound; for viability, T/C: stronger effect = lower value
From the text: DNA G-quadruplex Stabilizer Agents in Combinations in Complex Spheroids
A high-throughput screen of multi-cell type tumor spheroids was designed to identify active combinations of DNA G-quadruplex stabilizer agents and targeted small molecules. Complex spheroids include a stromal component modeled by human endothelial cells (HUVEC) and fibroblasts modeled by human mesenchymal stem cells (MSCs). The concentration ranges selected for each drug and investigational agent were based upon clinically achievable concentrations if the clinical Cmax of the agent was known.
Compounds. The drugs and investigational agents: pidnarulex (CX-5461; NSC782164), APTO-253 (NSC789042), BRACO-19 (NSC847499), peposertib (NSC802822), ceralasertib (NSC780249), elimusertib (NSC800525), camonsertib (NSC841442), AZD-1390 (NSC803789), olaparib (NSC753686), talazoparib (NSC767125), ART-558 (NSC835418), sotorasib (NSC818433), MRTX-1133 (NSC836407), SN-38 (NSC673596), topotecan (NSC609699), etoposide (NSC141540), doxorubicin (NSC123127), gemcitabine (NSC613327), 5-fluorouracil (NSC19893), paclitaxel (NSC125973), vemurafenib (NSC761431), panobinostat (NSC761190), R-306465 (JNJ-16241199; NSC773264), adavosertib (NSC754352), TP-3654 (NSC805149), carboplatin (NSC241240), KSQ-4279 (NSC840948), and staurosporine (NSC755774) were obtained from the National Cancer Institute (NCI) Developmental Therapeutics Program Chemical Repository (34). The FDA-approved anticancer drug set is available from the NCI Developmental Therapeutics Program. […] The stock solutions were prepared in dimethyl sulfoxide (DMSO, Sigma-Aldrich, St. Louis, MO, cat. D2650) at 800-fold the tested concentration and stored at -70 degrees C prior to their use. All drugs and investigational agents were tested over a range starting from a high concentration at or near the clinical Cmax and decreasing in half-log increments. If the clinical Cmax for an agent had not been determined, the highest concentration tested was 10 microM.
2.3 Cell Culture. All cells were maintained in an incubator at 37 degrees C and 5% CO2 with 95% humidity. The PDC lines were cultured according to standard operating procedures established by the NCI PDMR. All PDCs were thawed and cultured in Matrigel-coated flasks prepared with a working solution of 1X Ham's F-12 nutrient mix, without supplementation (Invitrogen, cat. 11765054), 100 U/mL penicillin-streptomycin (Invitrogen, cat. 15140122), and 2.5% Matrigel (Corning Inc., cat. 354248) for the first three passages. The 857933-349-R-J2-PDC line was cultured in 6C/Colon 1B media, which includes advanced DMEM/F-12 (Thermo Fisher Scientific, cat. 12634028), 10 mM HEPES (Thermo Fisher Scientific, cat. 15630080), 1X GlutaMAX supplement (Thermo Fisher Scientific, cat. 35050061), 0.1 mg/mL primocin (InvivoGen, cat. ant-pm-2), 10% defined fetal bovine serum, heat inactivated (HyClone Laboratories Inc., cat. SH30070.03HI), 50% L-WRN conditioned media (ATCC, cat. CRL-3276), 1.25 mM N-Acetyl-L-cysteine (Sigma-Aldrich, cat. A9165), 10 mM nicotinamide (Sigma-Aldrich, cat. N0636), 1X B-27 supplement (Thermo Fisher Scientific, cat. 17504044), 1X N-2 supplement (Thermo Fisher Scientific, cat. 17502048), 10 microM Y-27632 dihydrochloride (Tocris Bioscience, cat. 1254), and 50 ng/mL human EGF recombinant protein (Thermo Fisher Scientific, cat. PHG0311). The 485176-168-R4-J1-PDC line was cultured in Panc media, which includes all 6C/Colon 1B media components plus 100 ng/mL human FGF-10 (Thermo Fisher Scientific, cat. 100-26), 500 nM SB-431542 (Selleckchem, cat. S1067), and gastrin (Tocris, cat. 3006).
[…]

[1] = second compound 0.0316 µM, first compound 0.0316 µM
[2] = second compound 0.0316 µM, first compound 0.1 µM
[3] = second compound 0.0316 µM, first compound 0.316 µM
[4] = second compound 0.0316 µM, first compound 1 µM
[5] = second compound 0.0316 µM, first compound 3.16 µM
[6] = second compound 0.0316 µM, first compound 10 µM
[7] = second compound 0.1 µM, first compound 0.0316 µM
[8] = second compound 0.1 µM, first compound 0.1 µM
[9] = second compound 0.1 µM, first compound 0.316 µM
[10] = second compound 0.1 µM, first compound 1 µM
[11] = second compound 0.1 µM, first compound 3.16 µM
[12] = second compound 0.1 µM, first compound 10 µM
[13] = second compound 0.316 µM, first compound 0.0316 µM
[14] = second compound 0.316 µM, first compound 0.1 µM
[15] = second compound 0.316 µM, first compound 0.316 µM
[16] = second compound 0.316 µM, first compound 1 µM
[17] = second compound 0.316 µM, first compound 3.16 µM
[18] = second compound 0.316 µM, first compound 10 µM
[19] = second compound 1 µM, first compound 0.0316 µM
[20] = second compound 1 µM, first compound 0.1 µM
[21] = second compound 1 µM, first compound 0.316 µM
[22] = second compound 1 µM, first compound 1 µM
[23] = second compound 1 µM, first compound 3.16 µM
[24] = second compound 1 µM, first compound 10 µM
[25] = second compound 3.16 µM, first compound 0.0316 µM
[26] = second compound 3.16 µM, first compound 0.1 µM
[27] = second compound 3.16 µM, first compound 0.316 µM
[28] = second compound 3.16 µM, first compound 1 µM
[29] = second compound 3.16 µM, first compound 3.16 µM
[30] = second compound 3.16 µM, first compound 10 µM
[31] = second compound 10 µM, first compound 0.0316 µM
[32] = second compound 10 µM, first compound 0.1 µM
[33] = second compound 10 µM, first compound 0.316 µM
[34] = second compound 10 µM, first compound 1 µM
[35] = second compound 10 µM, first compound 3.16 µM
[36] = second compound 10 µM, first compound 10 µM
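Further: spheroids exposed to compounds for seven days before reading.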
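Wherever viability, T/C is given: percent viability relative to DMSO vehicle control taken as 100%.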

For C=CCn1c(=O)c2cnc(Nc3ccc(N4CCN(C)CC4)cc3)nc2n1-c1cccc(C(C)(C)O)n1 + Cc1[nH]c2ccc(F)cc2c1-c1nc2c3cccnc3c3ncccc3c2[nH]1, the IC50 (second compound 0.0316 µM) was greater than 10 µM, the IC50 (second compound 0.1 µM) was greater than 10 µM and the IC50 (second compound 0.316 µM) was greater than 10 µM. The IC50 (second compound 1 µM) was greater than 10 µM, the IC50 (second compound 3.16 µM) was greater than 10 µM and the IC50 (second compound 10 µM) was greater than 10 µM. It also gave a viability, T/C [1] of 103%, a viability, T/C [2] of 110% and a viability, T/C [3] of 167%. The viability, T/C [4] was 125%, the viability, T/C [5] was 157% and the viability, T/C [6] was 91.9%. The viability, T/C [7] was 112%, the viability, T/C [8] was 101% and the viability, T/C [9] was 127%. The viability, T/C [10] was 146%, the viability, T/C [11] was 183% and the viability, T/C [12] was 107%. For the same compound, the viability, T/C [13] was 101%, the viability, T/C [14] was 127% and the viability, T/C [15] was 126%. It also gave a viability, T/C [16] of 130%, a viability, T/C [17] of 202% and a viability, T/C [18] of 112%. For the same compound, the viability, T/C [19] was 89.3%, the viability, T/C [20] was 122% and the viability, T/C [21] was 120%. For the same compound, the viability, T/C [22] was 121%, the viability, T/C [23] was 194% and the viability, T/C [24] was 122%. The viability, T/C [25] was 75.5%, the viability, T/C [26] was 74.5% and the viability, T/C [27] was 85.2%. It also gave a viability, T/C [28] of 117%, a viability, T/C [29] of 122% and a viability, T/C [30] of 76.9%. It also gave a viability, T/C [31] of 70.5%, a viability, T/C [32] of 51.5% and a viability, T/C [33] of 85.7%. It also gave a viability, T/C [34] of 68.5%, a viability, T/C [35] of 105% and a viability, T/C [36] of 79.3%.
With CC(C)(O)C1CCC(Nc2ccc3ncc(-c4cccc(C(F)(F)F)c4)n3n2)CC1 (centres undefined) + Cc1[nH]c2ccc(F)cc2c1-c1nc2c3cccnc3c3ncccc3c2[nH]1 the IC50 (second compound 0.0316 µM) was 1.11 µM, the IC50 (second compound 0.1 µM) was 0.833 µM and the IC50 (second compound 0.316 µM) was 1.12 µM. It also gave an IC50 (second compound 1 µM) of 1.49 µM, an IC50 (second compound 3.16 µM) of 0.421 µM and an IC50 (second compound 10 µM) of 0.531 µM. The viability, T/C [1] was 99.4%, the viability, T/C [2] was 79.8% and the viability, T/C [3] was 78.5%. For the same compound, the viability, T/C [4] was 50.7%, the viability, T/C [5] was 31.8% and the viability, T/C [6] was 26.9%. The viability, T/C [7] was 118%, the viability, T/C [8] was 103% and the viability, T/C [9] was 64.7%. It also gave a viability, T/C [10] of 50.9%, a viability, T/C [11] of 34.1% and a viability, T/C [12] of 29.8%. The viability, T/C [13] was 103%, the viability, T/C [14] was 99.2% and the viability, T/C [15] was 80.3%. It also gave a viability, T/C [16] of 51.1%, a viability, T/C [17] of 36.5% and a viability, T/C [18] of 29.5%. It also gave a viability, T/C [19] of 87.1%, a viability, T/C [20] of 88.4% and a viability, T/C [21] of 77.6%. For the same compound, the viability, T/C [22] was 55.4%, the viability, T/C [23] was 38.9% and the viability, T/C [24] was 27.1%. It also gave a viability, T/C [25] of 56%, a viability, T/C [26] of 63.5% and a viability, T/C [27] of 52.4%. The viability, T/C [28] was 39.3%, the viability, T/C [29] was 37.8% and the viability, T/C [30] was 29%. The viability, T/C [31] was 66.3%, the viability, T/C [32] was 68.3% and the viability, T/C [33] was 62%. The viability, T/C [34] was 35.1%, the viability, T/C [35] was 33.9% and the viability, T/C [36] was 26%.
